Test results taken from paper PMC7217877, “N-AS-triggered SPMs are direct regulators of microglia in a model of Alzheimer’s disease” (Nature Communications, 2020).
Residue numbers refer to the chain shown, from its start. Where “and” joins values, the source holds several entries; their conditions need not be identical. Equal values may be shown once.

Legend:
COX2 WT = target: T1, COX2 WT (Homo sapiens, UniProt P35354); test: in vitro [14C] acetylation assay of purified COX2; format: biochemical; set-up: C14 radioactivity of COX2, acetylation assay (Fig 1h): unit not given here
T1 construct: His (N); made in house
T1 sequence (P35354 18-604): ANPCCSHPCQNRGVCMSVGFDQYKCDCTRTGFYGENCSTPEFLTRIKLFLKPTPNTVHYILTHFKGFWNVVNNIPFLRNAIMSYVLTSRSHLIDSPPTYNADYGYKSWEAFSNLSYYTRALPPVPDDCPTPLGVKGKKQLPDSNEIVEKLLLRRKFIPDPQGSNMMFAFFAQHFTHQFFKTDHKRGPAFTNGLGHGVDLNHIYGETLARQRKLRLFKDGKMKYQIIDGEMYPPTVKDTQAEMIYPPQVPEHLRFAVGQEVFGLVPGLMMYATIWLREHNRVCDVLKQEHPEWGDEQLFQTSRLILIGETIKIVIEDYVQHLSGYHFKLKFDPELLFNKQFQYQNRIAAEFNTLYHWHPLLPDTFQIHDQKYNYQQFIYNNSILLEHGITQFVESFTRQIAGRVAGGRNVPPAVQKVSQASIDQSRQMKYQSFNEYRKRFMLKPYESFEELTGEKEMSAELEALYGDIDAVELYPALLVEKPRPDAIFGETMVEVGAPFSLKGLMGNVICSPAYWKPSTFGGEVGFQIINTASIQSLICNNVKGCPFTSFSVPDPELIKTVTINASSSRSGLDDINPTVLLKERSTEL
Description: Acetylation assays were performed according to previously described procedures with minor modifications. […] To confirm the N-AS-mediated COX2 acetylation, 10 μg COX2 (WT or mutants) was used incubated with [^14C] N-AS (2 μCi, ARC UK Ltd, ARC-1024) at 37 °C for 2 h. [^14C] aspirin (2 μCi, ARC UK Ltd, ARC-0473) was conducted as the positive control. The reactions were terminated by placing the reaction tubes in ice for 5 min. To evaluate in vivo neuronal and microglial COX2 acetylation, 10 μCi [^14C] N-AS was orally administrated to 9-months-old WT and APP/PS1 mice. After 1 h, neuron and microglia were isolated and sonicated in culture media. To immunoprecipitate acetylated COX2, the sample was incubated with COX2 antibody (Abcam, ab15191) at 4 °C for 24 h and precipitated by adding 50 μl of protein-A sepharose (GE Healthcare). Acetylated COX2 proteins bound to the beads were analyzed using a Tri-Carb 3110TR liquid scintillation counter (Perkin-Elmer).

APP/PS1 mice = test: Aβ in Lamp1+ phagolysosomes of microglia (Supplementary Fig 5a); format: in vivo, mouse; details: N-AS vs vehicle APP/PS1
Description: Thioflavin S (Sigma-Aldrich) staining was carried out according to previously described procedures. We used 6E10 (mouse, 1:100, Signet, SIG39300), anti-20G10 (mouse, 1:1000, provided by D. R. Howlett, GlaxoSmithKline, Harlow, Essex, UK) for Aβ42, anti-G30 (rabbit, 1:1000, provided by D. R. Howlett) for Aβ40, SMA (mouse, 1:400, Sigma-Aldrich, A2547), AT8 (mouse, 1:500, Thermo Fisher Scientific, MN1020), Caspase-3 (mouse, 1:200, Novus Biologicals, NB100-56708), ac-S565 (rabbit, 1:100), COX2 (mouse, 1:250, Thermo Fisher Scientific, 35-8200), Iba1 (rabbit, 1:500, Wako, 019-19941 and goat, Abcam, ab5076), NeuN (mouse, 1:500, Millipore, MAB177), GFAP (rabbit, 1:500, Dako, N1506 and chicken, 1:500, Abcam, ab4674), and Lamp1 (mouse, 1:200, Abcam, ab24170). The sections were analyzed with a laser-scanning confocal microscope (FV3000; Olympus) or with a BX51 microscope (Olympus). MetaMorph software (Molecular Devices) was used to quantification. Three-dimensional reconstruction of microglia was recorded and analyzed using IMARIS software (Bitplane)[11]. For the analysis of age-dependent microglial COX2^+ CX3CR1^+ cells in WT and APP/PS1 mice, COX2 (rabbit, 1:100, Abcam, ab15191) and CX3CR1 (mouse, 1:100, BioLegend, 149008) antibody were used and the images were acquired on Alexa 488 and APC Channel with performed using Operetta CLS and Analysis Software 4.5 (Perkin-Elmer). […]

COX2 T564A = target: T2, COX2 T564A (Homo sapiens, UniProt P35354, T564A); test: filter binding assay of [14C] N-AS to COX2; details: 0.2 uM, replicates
T2 construct: His (N); made in house
T2 sequence (P35354 18-604 T564A): T1 sequence (P35354 18-604) with T547A

CCCCCCCCCCCCC/C=C/[C@@H](O)[C@H](CO)NC(C)=O [N-AS, N-((2S,3R,E)-1,3-Dihydroxyoctadec-4-en-2-yl)acetamide]
C14 radioactivity of COX2, acetylation assay (Fig 1h) (COX2 WT; COX2 WT, replicates, listed as C14 N-AS): 278534 and 277829 and 277497 and 262864 and 273318 and 276027
COX2 acetylation level, in words (COX2 WT; [14C] N-AS vs aspirin or SphK1-mediated acetylation): higher-level acetylation
microglia containing co-stained lysosomes and Aβ (APP/PS1 mice): increased number of microglia containing co-stained lysosomes and Aβ
binding velocity (Vbinding) (COX2 T564A): 0.196 nM/min and 0.240 nM/min and 0.096 nM/min
